Laboratory results reported in article PMC3252702 (ChemMedChem, 2010).

Experiments:
HsCDK2 = HsCDK2 (Homo sapiens, UniProt P24941); experiment: biochemical
EtCRK2 = EtCRK2 (Eimeria tenella, UniProt Q6R8F0); experiment: TR-FRET; type: biochemical
[1] = tested on: E. tenella schizont development; experiment: Schizont maturation assay; type: cell-based, Eimeria tenella; details: n=2

Chain of EtCRK2 (Q6R8F0 1-296): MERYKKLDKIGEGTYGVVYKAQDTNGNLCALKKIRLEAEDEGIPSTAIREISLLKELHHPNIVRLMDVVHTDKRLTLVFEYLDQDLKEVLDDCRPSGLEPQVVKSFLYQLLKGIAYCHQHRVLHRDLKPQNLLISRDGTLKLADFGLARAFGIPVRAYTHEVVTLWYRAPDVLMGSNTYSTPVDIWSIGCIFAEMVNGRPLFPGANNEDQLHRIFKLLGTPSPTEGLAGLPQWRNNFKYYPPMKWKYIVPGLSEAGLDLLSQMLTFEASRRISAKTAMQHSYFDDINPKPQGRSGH

IC50 (HsCDK2) [µM] | Ki (HsCDK2) [µM] | IC50 (EtCRK2) [µM] | Ki (EtCRK2) [µM] | SMILES | inhibition of E. tenella schizont development ([1]; 150 nM) | inhibition of E. tenella schizont development ([1]; 300 nM) | inhibition of E. tenella schizont development ([1]; concentrations below 80 nM)
26 ± 19 | 17 ± 8 | 23 ± 14 | 16 ± 9 | O=C(O)CN1C(=O)/C(=C2\SC(=S)NC2=O)c2ccccc21 [BES062021, 2-[(3Z)-2-oxo-3-(4-oxo-2-thioxo-thiazolidin-5-ylidene)indolin-1-yl]acetic acid] |  |  | 
12 ± 7 | 2 ± 1 | 36 ± 8 | 6 ± 2 | CCN(CC)S(=O)(=O)c1ccc2c3c(cccc13)C(=O)N2 [BES143551, N,N-diethyl-2-oxo-1,2-dihydrobenzo[cd]indole-6-sulfonamide] |  |  | 
 |  | 61 ± 27 | 83 ± 29 | Cc1c(CCC(=O)O)c(=O)n2c([nH]c3ccccc32)c1C#N [BES241415, 3-(4-cyano-3-methyl-1-oxo-5H-pyrido[1,2-a]benzimidazol-2-yl)propanoic acid] |  |  | 
35 ± 3 | 8 ± 2 | 15 ± 3 | 8 ± 2 | O=C1NC(=Nc2nc3cc([N+](=O)[O-])ccc3[nH]2)NC1=O [BES252034, 2-[(5-nitro-1H-benzimidazol-2-yl)imino]imidazolidine-4,5-dione] |  |  | 
 |  |  |  | CN1CC[C@H](c2c(O)cc(O)c3c(=O)cc(-c4ccccc4Cl)oc23)[C@H](O)C1 [Flavopiridol, 2-(2-Chlorophenyl)-5,7-dihydroxy-8-[(3S,4R)-3-hydroxy-1-methyl-4-piperidinyl]-4H-1-benzopyran-4-one] | fully inhibited | fully inhibited | no inhibitory effects
